The text below walks through data of publication PMC9609996, “SAR Study and Molecular Mechanism Investigation of Novel Naphthoquinone-furan-2-cyanoacryloyl Hybrids with Antitumor Activity” (Pharmaceutics, 2022).

Bounds are passed on as bounds.

Type in all cases: cell-based, human
One assay deals with HeLa. The assay can be described thus: CCK-8 anti-proliferation assay, HeLa. The conditions noted are these: Homo sapiens, mean ± SD. The method, then:
(§1) Human cervical cancer HeLa, human prostate cancer PC3, human colonic carcinoma HCT116, human lung carcinoma A549, human breast cancer MDA-MB-231, mouse melanoma B16, human ovarian cancer SKOV3, human hepatoma Hep3B, and human liver L02 cells were purchased from the Cell Bank of Shanghai Institute of Biochemistry and Cell Biology, Chinese Academy of Sciences (Shanghai, China). The HeLa, A549, B16, PC3, MDA-MB-231, HCT116, and L02 cells were cultured in Dulbecco’s modified Eagle medium (DMEM, Gibco Inc.; Gaithersburg, MD, USA). All cultures were supplied with 10% fetal bovine serum (FBS; YHSM, Beijing, China), 100 IU/mL of penicillin, and 100 μg/mL of streptomycin, and cells were incubated at 37 °C in an atmosphere of 5% CO2.
(§2) A CCK-8 kit (MCE, USA) was used to perform a CCK-8 assay. Cells were plated and grown in the 96-well plates for the indicated period (48 h) in the incubator, followed by an incubation with the CCK-8 solutions for 1–4 h. Subsequently, the absorbance (450 nm) was measured by a microplate reader. The median inhibitory concentration (IC50) was determined from the dose–response curve. Experiments were performed in a triplicate.
For orientation: Tetrazolium assays rely on reduction of a dye to a coloured formazan, in cell work by metabolically active cells.

The test system of another assay is MDA-MB-231. The assay can be described thus: CCK-8 anti-proliferation assay, MDA-MB-231. The conditions noted are these: mean ± SD. The method, then:
as §1, §2

A further assay deals with HCT116. The assay can be described thus: CCK-8 anti-proliferation assay, HCT116. The note with it: Homo sapiens, mean ± SD. The method, then: as §1, §2
A further assay has as its system Bax in HeLa cells. The assay can be described thus: Western blot, Bax. The note with it: 6–12 μM, 24 h. On the procedure: Protein levels were determined by the standard Western blot assay. HeLa cells were incubated with different concentrations of compound 5c or 0.1% DMSO for 24 h. Cells harvested with trypsin were treated with 1× RIPA lysis buffer (50 mM Tris-HCl, pH 7.4, 150 mM NaCl, 0.25% deoxycholic acid, 1% NP-40, 1 mM ethylenediaminetetraacetate (EDTA), and protease inhibitor PMSF (Solarbio, Beijing, China) to extract the total proteins. Then, an aliquot of proteins from the total cell lysates (4–40 μg/lane) was separated using sodium dodecyl sulfate (8, 10, or 12%) polyacrylamide gel electrophoresis (BioRad Laboratories, Hercules, CA, USA). The aliquot was wet-transferred to a PVDF membrane (BioRad Laboratories, Hercules, CA, USA), blotted with primary antibodies (purchased from Cell Signaling Technology, Danvers, MA, USA) specific for the STAT3 (#12640), p-STAT3 (#9145), AKT (#4691), p-AKT (#4060), Bax (#5023), Bcl-xl (#2764), secondary isotype-specific antibodies (#7074) and glyceraldehyde-3-phosphate dehydro-genase (GAPDH, #2118) as the internal standard overnight; then, they were probed with secondary isotype-specific antibodies for another 2 h at 37 °C. The bound immuno-complexes were detected using a ChemiDOC XRS+ system (BioRad Laboratories, Hercules, CA, USA).
In general terms: Immunoblotting shows a protein as a band on a membrane.

Another assay deals with ROS in HeLa cells. The assay can be described thus: Cellular ROS detection (DCFDA flow cytometry). The conditions noted are these: 6, 9, 12 μM, 6 h. On the procedure:
To measure reactive oxygen species (ROS) production, 2′,7′-dichlorofluorescein diacetate (DCFDA) (Thermo Fisher Scientific, Waltham, MA, USA; D399) was used. DCFDA is a fluorogenic dye that, after diffusion into the cell, is oxidized by ROS into 2′,7′-dichlorofluorescein (DCF), a highly fluorescent compound that can be detected by fluorescence spectroscopy. To measure ROS production, HeLa cells were treated with compound 5c at 6 μM, 9 μM, and 12 μM for 6 h. Then, cells were washed with pre-warmed 1X PBS and were incubated at 37 °C with 10 μM of DCFDA for 30 min in PBS. Subsequently, the HeLa cells were washed and analyzed in FL-1 using a FACScalibur flow cytometer (BD, USA) and using CELL Quest software (BD Biosciences, San Jose, CA, USA). Live cells were gated according to their forward scatter (FSC) and side scatter (SSC) properties. For each analysis, 20,000 events were recorded.

One may read the inhibition as the change of the read-out against control, counted positive when it falls. By IC50 is commonly meant the concentration that gives 50% inhibition. As for `N#C/C(=C\c1ccc(C2=CC(=O)c3ccccc3C2=O)o1)C(=O)NCCN1CCOCC1` [Compound 5c, (E)-2-cyano-3-(5-(1,4-dioxo-1,4-dihydronaphthalen-2-yl)furan-2-yl)-N-(2-morpholinoethyl)acrylamide], the inhibition at 20 µM came to 75.78 ± 0.05% in the assay on HeLa (20 μM, read-out: Inhibition Rate (%) at 20 μM HeLa) and 67.67 ± 0.01% with HCT116 (HCT-116, 20 μM, read-out: Inhibition Rate (%) at 20 μM HCT116). Moreover, the IC50 in the assay with HeLa (48 h) is 3.1 ± 0.02 µM; in the assay with MDA-MB-231 (48 h), 40.74 ± 0.12 µM; with MDA-MB-231 (Homo sapiens, MDA-MB-231, 48 h), over 20.5 µM; with HCT116 (HCT-116, 48 h) it was 13.38 ± 0.04 µM. In addition, the “levels of Bax” value with Bax in HeLa cells was “increased”. Also, in the assay on ROS in HeLa cells, the “level of ROS in cancer cells” value is recorded as “significantly increased”.
